The results in this text go back to PubChem BioAssay (NCI).

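Assay format: 96-well plates, 48-hour exposure. The concentration for 50% growth inhibition is given as GI50. Definition used: TGI = concentration required for complete inhibition of growth.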 Bounds are passed on as bounds.

Among the test systems are CAKI-1 renal; IGROV1 ovarian; SK-MEL-5 melanoma; SW-620 colon; MOLT-4 leukemia; HOP-92 NSCLC; OVCAR-5 ovarian; SF-295 CNS; UACC-257 melanoma; LOX IMVI melanoma.
Assay in all cases: NCI anticancer screen, dose series, 48 h

Turning to `COC(C)(C)C1=CCC(C)CC1` (stereo not given), the TGI in the test with CAKI-1 renal, in the test with IGROV1 ovarian, in the test on SK-MEL-5 melanoma, with SW-620 colon, with MOLT-4 leukemia and in the test with HOP-92 NSCLC was over 100 µM each time. Moreover, the TGI in the test with OVCAR-5 ovarian, with SF-295 CNS and in the test on UACC-257 melanoma was over 100 µM throughout.
Consider `OCCN1CN(CCO)CN(c2nc(N3CN(CCO)CN(CCO)C3)nc(N3CN(CCO)CN(CCO)C3)n2)C1`, for which the GI50 with IGROV1 ovarian is 1.55 ng/mL; in the test on SK-MEL-5 melanoma, 0.891 ng/mL; in the test on MOLT-4 leukemia, 1.23 ng/mL; in the test with HOP-92 NSCLC, 1.85 ng/mL; with UACC-257 melanoma, 1.42 ng/mL. Besides, the TGI in the test with IGROV1 ovarian was 4.61 ng/mL; in the test with SK-MEL-5 melanoma, 1.74 ng/mL; in the test on SW-620 colon, 1.04 ng/mL; in the test with MOLT-4 leukemia it was 4.78 ng/mL; in the test on HOP-92 NSCLC, 4.52 ng/mL; in the test on UACC-257 melanoma, 3.14 ng/mL.
In the case of `CCCCN(CCCC)CC(C(=O)Nc1ccc([N+](=O)[O-])cc1[N+](=O)[O-])/C(C)=N\NC(=S)NN` (stereo not given), the TGI in the test on IGROV1 ovarian, in the test on SK-MEL-5 melanoma, with SW-620 colon, in the test with MOLT-4 leukemia, in the test on HOP-92 NSCLC and with OVCAR-5 ovarian was over 100 µM throughout. In addition, the TGI with SF-295 CNS, with LOX IMVI melanoma and in the test with UACC-257 melanoma was over 100 µM in each case.
With `O=[n+]1c2c(n([O-])c3ccccc31)CCCCCCCCCC2`, the TGI in the test on CAKI-1 renal, in the test on IGROV1 ovarian, in the test on SW-620 colon, with MOLT-4 leukemia, with HOP-92 NSCLC and with SF-295 CNS was over 100 µM in each case. For the same compound, the TGI with LOX IMVI melanoma and in the test on UACC-257 melanoma was over 100 µM each time.
Take `CC1OC2CC(=O)OC2C2=C1C(=O)c1c(O)cccc1C2=O` (stereo not given): the GI50 is 0.0423 µM in the test with CAKI-1 renal; 0.0508 µM in the test with IGROV1 ovarian; 0.124 µM in the test on SK-MEL-5 melanoma; 0.0411 µM in the test with SW-620 colon; 0.151 µM with HOP-92 NSCLC; 0.204 µM with OVCAR-5 ovarian. The values for the GI50 with SF-295 CNS, with LOX IMVI melanoma and in the test on UACC-257 melanoma were 0.956 µM, 0.0342 µM and 0.0748 µM, respectively. Moreover, the TGI amounted to 0.148 µM with CAKI-1 renal; 0.112 µM with IGROV1 ovarian; 0.251 µM with SK-MEL-5 melanoma; 0.154 µM in the test with SW-620 colon; 0.315 µM with HOP-92 NSCLC; 0.44 µM in the test on OVCAR-5 ovarian. For the same compound, the TGI in the test with SF-295 CNS is 2.62 µM; in the test with LOX IMVI melanoma, 0.129 µM; with UACC-257 melanoma, 0.217 µM.
For the compound `CC1=Nc2ccccc2C1C(Cc1ccccc1N)c1c(C)[nH]c2ccccc12` (stereo not given), the TGI in the test with IGROV1 ovarian worked out at 36 µM; in the test on SK-MEL-5 melanoma, 27.8 µM; with SW-620 colon it was 34.7 µM; in the test on MOLT-4 leukemia, 53.4 µM; in the test on HOP-92 NSCLC, 26.1 µM; in the test with OVCAR-5 ovarian it was 31.6 µM. Moreover, the TGI came out at 25.8 µM in the test on SF-295 CNS, 28.2 µM with LOX IMVI melanoma and 32.4 µM with UACC-257 melanoma.
For `Cc1nc2ccccc2c(=O)n1NC(=O)c1ccc(CS)cc1`, the TGI amounted to 27.2 µM in the test on IGROV1 ovarian; 29.2 µM in the test on SK-MEL-5 melanoma; 21.7 µM in the test with SW-620 colon; 12.3 µM in the test with MOLT-4 leukemia; 40.8 µM in the test on HOP-92 NSCLC; 83.9 µM in the test with OVCAR-5 ovarian. For the same compound, the values for the TGI in the test on SF-295 CNS, in the test with LOX IMVI melanoma and in the test with UACC-257 melanoma were over 100 µM, 0.401 µM and over 100 µM, respectively.
For the compound `CC(C)(C)[SiH]12(OC(C(F)(F)F)(C(F)(F)F)c3ccccc31)OC(C(F)(F)F)(C(F)(F)F)c1ccccc12`, the TGI in the test on CAKI-1 renal was found to be 25.3 µM; in the test on SK-MEL-5 melanoma, 22.1 µM; with SW-620 colon, 18.1 µM; in the test on MOLT-4 leukemia, 5.41 µM; in the test with OVCAR-5 ovarian, 6.25 µM; in the test with SF-295 CNS, 8.41 µM. For the same compound, the TGI with UACC-257 melanoma is 27.7 µM.
With `CC(C)(C)OC(=O)NCC(=O)OCc1ccccc1`, the TGI with IGROV1 ovarian, in the test with SW-620 colon, in the test on MOLT-4 leukemia, in the test with HOP-92 NSCLC, in the test on OVCAR-5 ovarian and in the test with SF-295 CNS was over 100 µM each time. For the same compound, the TGI in the test with LOX IMVI melanoma and in the test on UACC-257 melanoma was over 100 µM in each case.
As for `COC(=O)c1cc2c(cc1O)[C@@H](NC(C)=O)CCc1cc(OC)c(OC)c(OC)c1-2`, the GI50 is 0.0214 µM in the test with CAKI-1 renal; 0.0235 µM in the test with SW-620 colon; 0.0472 µM with MOLT-4 leukemia; under 0.01 µM in the test on SF-295 CNS; 0.0274 µM in the test on UACC-257 melanoma. The TGI is over 100 µM with CAKI-1 renal; over 100 µM in the test on SW-620 colon; 81.8 µM in the test on MOLT-4 leukemia; 8.75 µM in the test with HOP-92 NSCLC; over 100 µM with SF-295 CNS; over 100 µM in the test on LOX IMVI melanoma. In the test on UACC-257 melanoma, the TGI is over 100 µM.
Consider `Clc1ccc2c(NCCCNc3nccc(Nc4ccc(Br)cc4)n3)ccnc2c1`, for which the GI50 in the test on CAKI-1 renal was 1.53 µM; in the test on SK-MEL-5 melanoma, 1.48 µM; in the test with SW-620 colon, 1.58 µM; in the test with HOP-92 NSCLC, 1.32 µM; in the test with OVCAR-5 ovarian it was 1.63 µM; in the test with SF-295 CNS, 1.56 µM. Also, the GI50 with UACC-257 melanoma is 1.87 µM. Also, the TGI in the test with CAKI-1 renal is 3 µM; in the test with SK-MEL-5 melanoma, 2.84 µM; in the test with SW-620 colon, 3.3 µM; in the test with HOP-92 NSCLC, 3.23 µM; with OVCAR-5 ovarian, 3.18 µM; in the test on SF-295 CNS, 2.97 µM. The compound also came in with a TGI in the test on UACC-257 melanoma of 3.4 µM.
With `C=CC1CC12C(=O)C1OC2(C)C2C(=O)c3cc4ccccc4cc3C(=O)C12` (stereo not given), the GI50 in the test on CAKI-1 renal is 12 µM; in the test with IGROV1 ovarian it was 39 µM; with MOLT-4 leukemia, 15.8 µM; in the test on HOP-92 NSCLC, 20.9 µM; with OVCAR-5 ovarian, 61.2 µM; with UACC-257 melanoma, 21.5 µM. For the same compound, the TGI in the test on CAKI-1 renal is 35.7 µM; in the test with IGROV1 ovarian, over 100 µM; with MOLT-4 leukemia it was over 100 µM; in the test with HOP-92 NSCLC it was 95.3 µM; with OVCAR-5 ovarian, over 100 µM; with UACC-257 melanoma it was 65.5 µM.
As to `O=C1CN=C(C[N+](=O)[O-])c2ccccc21`, the TGI in the test on CAKI-1 renal, in the test on IGROV1 ovarian, in the test on SK-MEL-5 melanoma, in the test on SW-620 colon, with MOLT-4 leukemia and in the test with HOP-92 NSCLC was over 100 µM each time. Also, the TGI with OVCAR-5 ovarian, with SF-295 CNS and in the test on UACC-257 melanoma was over 100 µM each time.
